Measured values as given in BigSolDB 2.1.

O=C(O)c1ccc(-c2ccc(C(=O)O)o2)o1
solubility (mole fraction)
Conditions | in DMAc | in DMSO | in acetic acid | in acetonitrile | in isopropanol | in methanol | in n-pentanol | in water
298.15 K | 0.0166 | 0.00768 | 8.11e-06 | 1.73e-06 | 0.0001 | 0.000331 | 0.000146 | 9.64e-07
303.15 K | 0.0208 | 0.00984 | 1.13e-05 | 2.2e-06 | 0.000106 | 0.000393 | 0.000154 | 1.31e-06
313.15 K | 0.0283 | 0.017 | 2.35e-05 | 3.47e-06 | 0.000154 | 0.000464 | – | 1.97e-06
323.15 K | 0.0499 | 0.0282 | 3.38e-05 | 5.31e-06 | 0.000223 | 0.000574 | 0.000148 | 2.55e-06
333.15 K | 0.0555 | 0.0412 | 6.79e-05 | 7.91e-06 | 0.000284 | 0.000702 | 0.000214 | 3.75e-06
343.15 K | 0.0807 | 0.0728 | 0.000112 | 1.15e-05 | 0.000592 | 0.00109 | 0.000412 | 4.84e-06
353.15 K | – | – | 0.000214 | 1.58e-05 | 0.00116 | – | 0.000757 | 7.43e-06
363.15 K | – | – | – | 2.12e-05 | 0.0014 | – | 0.00144 | 9.09e-06
